Source: patent US20110059967A1, “THERAPEUTIC COMPOUNDS” (Allergan Inc., priority 2008, published 2011)
Entries after “also recorded” stand apart in the source; their conditions may differ.

System: lashes and adjacent hairs
Assay: Observation of lashes and adjacent hairs in glaucoma patients treated with bimatoprost in only one eye
Type: in vivo
Details: glaucoma patients taking bimatoprost in only one eye
Excerpt: In the course of treating patients having glaucoma, treatment may only be appropriate in one eye. […] The lash appearance on the lids of the treated eyes would have appeared quite attractive if it represented a bilateral phenomenon. As a result of its asymmetric nature, the long lash'es on one side could be construed as disturbing from a cosmetic standpoint. A systemic examination was preformed as a result of the asymmetric phenomenon. It soon became apparent that this altered appearance was not an isolated finding. […] Definite differences could be identified to varying degrees in the lashes and adjacent hairs of all patients who were taking the drug on a unilateral basis for longer than 6 months.
The changes in the lashes were apparent on gross inspection in several patients once attention was focused on the issue. In those with light colored hair and lashes, the differences were only seen easily with the aid of the high magnification and lighting capabilities of the slit lamp biomicroscope. In the course of glaucoma follow-up examination, attention is generally immediately focused on the eye itself. As a result of the high power magnification needed only one eye is seen at a time and the eye is seen at a high enough power that the lashes are not in focus. […]

## CCNC(=O)CCC/C=C\C[C@@H]1[C@@H](/C=C/[C@@H](O)CCc2ccccc2)[C@H](O)C[C@@H]1O [bimatoprost]
  hair growth: lashes of the treated eye compared with the non-treated eye: longer, thicker, and fuller; also recorded: hair growth is stimulated
